Measured values as given in ChEMBL document CHEMBL1201862, “PubChem BioAssay data set” (2004).
Activity calls are given as the source filed them.

How the values were obtained:
[1] = target: T1, Orexin/Hypocretin receptor type 1 (Homo sapiens, UniProt O43613); experiment: Homogeneous Time Resolved Fluorescence (HTRF)-based cell-based high throughput dose response assay for antagonists of the orexin 1 receptor (OX1R; HCRTR1). [Related pubchem assays (depositor defined):AID434989, AID435008, AID463079, AID485270, AID492963, AID492964, AID492965, AID493232, AID504717, AID504718]; type: functional
T1 sequence (O43613 whole entry): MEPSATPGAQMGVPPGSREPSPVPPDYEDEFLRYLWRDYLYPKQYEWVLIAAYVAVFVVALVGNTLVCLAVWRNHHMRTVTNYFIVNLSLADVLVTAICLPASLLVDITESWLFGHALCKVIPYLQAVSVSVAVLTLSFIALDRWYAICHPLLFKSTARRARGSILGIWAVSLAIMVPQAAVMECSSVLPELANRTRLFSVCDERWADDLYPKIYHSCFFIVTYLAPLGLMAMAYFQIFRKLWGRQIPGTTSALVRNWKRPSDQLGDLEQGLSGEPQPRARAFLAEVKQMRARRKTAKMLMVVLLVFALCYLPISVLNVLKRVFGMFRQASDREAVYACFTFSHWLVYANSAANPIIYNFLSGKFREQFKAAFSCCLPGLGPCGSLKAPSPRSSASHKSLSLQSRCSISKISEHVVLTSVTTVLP

CHO-K1 = experiment: (§1) Counterscreen for antagonists of the orexin 1 receptor (OX1R; HCRTR1): Homogeneous time resolved fluorescence (HTRF)-based cell-based dose response assay to identify antagonists of the parental CHO-K1 cell line. [Related pubchem assays (depositor defined):AID434989, AID435008, AID463079, AID485270, AID492963, AID492964, AID492965, AID493232, AID504699, AID504701]; type: functional; conditions: Cricetulus griseus
[2] = target: T1, Orexin/Hypocretin receptor type 1; experiment: Fluorescence-based cell-based high throughput dose response assay for antagonists of the orexin 1 receptor (OX1R; HCRTR1). [Related pubchem assays (depositor defined):AID434989, AID435008, AID463079, AID485270, AID492963, AID492964, AID492965, AID493232, AID504717, AID504718]; type: functional
Orexin receptor type 2 [3] = target: T2, Orexin receptor type 2 (Homo sapiens, UniProt O43614); experiment: Counterscreen assay for antagonists of the orexin 1 receptor (OX1R; HCRTR1): Homogeneous Time Resolved Fluorescence (HTRF)-based cell-based dose response assay for antagonists of the orexin 2 receptor (OX2R; HCRTR2), run by assay provider.; type: functional
T2 sequence (O43614 whole entry): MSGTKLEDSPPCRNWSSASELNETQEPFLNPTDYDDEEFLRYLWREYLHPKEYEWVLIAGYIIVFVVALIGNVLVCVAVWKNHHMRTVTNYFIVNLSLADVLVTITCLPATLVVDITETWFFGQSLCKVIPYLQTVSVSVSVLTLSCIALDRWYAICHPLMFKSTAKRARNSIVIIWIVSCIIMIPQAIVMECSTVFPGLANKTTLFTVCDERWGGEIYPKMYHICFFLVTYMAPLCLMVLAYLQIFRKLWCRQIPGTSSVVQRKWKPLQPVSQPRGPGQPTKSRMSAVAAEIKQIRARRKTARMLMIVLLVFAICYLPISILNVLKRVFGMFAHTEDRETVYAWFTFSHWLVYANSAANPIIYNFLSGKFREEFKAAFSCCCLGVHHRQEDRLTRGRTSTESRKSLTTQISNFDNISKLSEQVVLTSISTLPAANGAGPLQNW

[4] = as §1, with “Fluorescence-based” for “Homogeneous time resolved fluorescence (HTRF)-based”, “cell-based high throughput” for “cell-based”, “CHO” for “CHO-K1”; type: functional
Orexin receptor type 2 [5] = target: T2, Orexin receptor type 2; experiment: Counterscreen assay for antagonists of the orexin 1 receptor (OX1R; HCRTR1): Fluorescence-based cell-based dose response assay for antagonists of the orexin 2 receptor (OX2R; HCRTR2), run by assay provider.; type: functional
Protein RecA = target: T3, Protein RecA (Mycobacterium tuberculosis, UniProt P9WHJ3); experiment: Fluorescence Cell-Free Homogeneous Dose Retest to Identify Inhibitors of RecA-Intein Splicing Activity. [Related pubchem assays (depositor defined):AID2097, AID2223, AID489010, AID492950]; type: functional
T3 sequence (P9WHJ3 whole entry): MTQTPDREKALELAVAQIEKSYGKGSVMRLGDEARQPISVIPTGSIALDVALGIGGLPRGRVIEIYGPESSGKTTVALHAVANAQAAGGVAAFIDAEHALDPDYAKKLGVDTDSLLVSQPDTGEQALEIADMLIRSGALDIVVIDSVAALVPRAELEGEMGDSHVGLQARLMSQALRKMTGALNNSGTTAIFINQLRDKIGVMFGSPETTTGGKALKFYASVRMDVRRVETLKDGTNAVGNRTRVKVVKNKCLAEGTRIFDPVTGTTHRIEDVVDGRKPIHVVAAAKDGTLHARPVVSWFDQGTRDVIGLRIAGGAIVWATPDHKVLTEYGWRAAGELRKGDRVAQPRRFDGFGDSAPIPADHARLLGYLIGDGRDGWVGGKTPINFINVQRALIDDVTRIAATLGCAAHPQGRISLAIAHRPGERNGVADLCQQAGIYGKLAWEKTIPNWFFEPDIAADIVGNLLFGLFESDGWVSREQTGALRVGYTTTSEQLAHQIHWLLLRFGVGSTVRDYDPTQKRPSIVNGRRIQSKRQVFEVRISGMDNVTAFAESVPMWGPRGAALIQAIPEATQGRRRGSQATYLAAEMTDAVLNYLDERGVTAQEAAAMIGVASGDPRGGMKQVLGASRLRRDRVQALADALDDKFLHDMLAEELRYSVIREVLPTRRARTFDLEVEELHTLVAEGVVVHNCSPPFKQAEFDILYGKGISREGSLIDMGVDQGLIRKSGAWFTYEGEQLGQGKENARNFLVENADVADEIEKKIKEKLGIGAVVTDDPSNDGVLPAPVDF

Genome polyprotein = Genome polyprotein (dengue virus type 2, UniProt P29990); experiment: flavivirus cap methylation enzyme inhibition – biochemical, confirmation dose response, primary screen (AID 588689); type: functional
[6] = Trypanosoma cruzi growth suppression in host cells – NIH3T3 host cells, beta-gal luminescence, confirmation (AID 2044); type: functional, cell-based;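 also: intracellular parasites grown in NIH/3T3 mouse fibroblasts as host cells; luminescent beta-galactosidase reporter signal from transgenic T. cruzi replicating inside host cells; inhibitors lower the luminescence signal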
[7] = microbe, parasite or virus in culture; type: functional; conditions: Mycobacterium tuberculosis
[8] = target: T4, Replicative DNA helicase DnaB (Mycobacterium tuberculosis, UniProt P9WMR3); experiment: DnaB intein splicing inhibitors, dose response, biochemical, cell-free fluorescence (AID 449749); type: functional
T4 sequence (P9WMR3 whole entry): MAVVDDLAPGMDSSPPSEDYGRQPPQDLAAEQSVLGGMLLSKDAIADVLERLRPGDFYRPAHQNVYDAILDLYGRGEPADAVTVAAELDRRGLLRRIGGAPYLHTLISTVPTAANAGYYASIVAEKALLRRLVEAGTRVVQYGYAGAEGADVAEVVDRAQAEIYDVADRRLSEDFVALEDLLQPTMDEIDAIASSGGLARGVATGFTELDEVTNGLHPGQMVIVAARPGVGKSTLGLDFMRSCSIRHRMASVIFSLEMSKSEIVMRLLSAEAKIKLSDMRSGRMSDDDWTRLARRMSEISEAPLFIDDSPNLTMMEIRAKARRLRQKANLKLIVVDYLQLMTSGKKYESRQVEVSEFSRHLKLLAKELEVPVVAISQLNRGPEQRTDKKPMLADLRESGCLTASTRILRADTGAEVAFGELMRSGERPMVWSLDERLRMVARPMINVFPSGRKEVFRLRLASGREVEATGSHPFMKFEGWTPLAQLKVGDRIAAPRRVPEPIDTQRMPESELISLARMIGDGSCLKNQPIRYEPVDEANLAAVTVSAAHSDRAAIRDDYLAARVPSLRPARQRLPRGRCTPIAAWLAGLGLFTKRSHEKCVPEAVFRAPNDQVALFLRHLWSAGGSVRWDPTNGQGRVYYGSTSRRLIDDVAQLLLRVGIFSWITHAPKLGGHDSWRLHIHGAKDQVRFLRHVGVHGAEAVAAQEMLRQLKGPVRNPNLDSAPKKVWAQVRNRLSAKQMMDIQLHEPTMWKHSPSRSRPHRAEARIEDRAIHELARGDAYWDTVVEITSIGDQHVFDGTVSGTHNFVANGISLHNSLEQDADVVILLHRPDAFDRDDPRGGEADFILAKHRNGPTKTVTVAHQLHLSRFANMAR

[9] = NIH3T3 cell viability loss – ATP luminescence, mouse fibroblasts, counter-screen, dose response (AID 2010); type: functional, cell-based;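 also: cells exposed to compound for about 90 hours before reading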
Vero = experiment: viability of Vero cells under compound – cytotoxicity control for flavivirus capping enzyme inhibitors (AID 588742); type: functional; conditions: Chlorocebus sabaeus
Insulin-degrading enzyme [10] = target: T5, Insulin-degrading enzyme (Homo sapiens, UniProt P14735); experiment: recombinant IDE activation, cell-free – biochemical, fluorescence polarization, counter-screen for IDE activator project, dose response (AID 588681)
T5 sequence (P14735 whole entry): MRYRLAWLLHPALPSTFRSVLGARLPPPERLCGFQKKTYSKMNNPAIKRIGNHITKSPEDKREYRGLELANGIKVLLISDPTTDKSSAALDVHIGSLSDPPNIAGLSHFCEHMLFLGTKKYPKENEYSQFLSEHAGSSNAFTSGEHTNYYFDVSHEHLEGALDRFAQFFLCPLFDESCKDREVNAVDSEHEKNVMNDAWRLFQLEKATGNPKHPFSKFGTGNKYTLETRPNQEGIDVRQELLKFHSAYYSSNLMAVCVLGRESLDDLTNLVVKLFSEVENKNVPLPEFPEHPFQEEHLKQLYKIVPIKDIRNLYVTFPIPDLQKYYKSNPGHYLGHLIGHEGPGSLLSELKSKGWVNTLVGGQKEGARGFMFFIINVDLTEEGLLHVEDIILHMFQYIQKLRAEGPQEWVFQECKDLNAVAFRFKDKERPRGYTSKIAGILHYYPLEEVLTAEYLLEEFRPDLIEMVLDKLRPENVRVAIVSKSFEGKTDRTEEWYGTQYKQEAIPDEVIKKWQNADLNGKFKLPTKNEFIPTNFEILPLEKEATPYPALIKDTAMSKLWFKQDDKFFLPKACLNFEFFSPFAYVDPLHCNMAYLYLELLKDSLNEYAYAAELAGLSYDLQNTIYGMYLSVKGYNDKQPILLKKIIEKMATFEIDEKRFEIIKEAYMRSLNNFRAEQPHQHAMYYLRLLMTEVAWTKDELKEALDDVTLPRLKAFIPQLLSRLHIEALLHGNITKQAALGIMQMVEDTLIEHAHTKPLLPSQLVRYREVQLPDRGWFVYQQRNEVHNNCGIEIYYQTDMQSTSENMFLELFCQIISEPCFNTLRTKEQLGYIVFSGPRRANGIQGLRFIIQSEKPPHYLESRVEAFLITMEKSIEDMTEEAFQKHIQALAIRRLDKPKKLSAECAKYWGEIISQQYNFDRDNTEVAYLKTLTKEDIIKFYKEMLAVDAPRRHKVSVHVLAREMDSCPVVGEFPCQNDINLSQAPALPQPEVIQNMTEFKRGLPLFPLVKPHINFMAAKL

HEK293 [11] = experiment: optical interference in Abeta FP readout, dose response, artefact control for IDE activator project, biochemical, fluorescence polarization (AID 588442); type: functional, cell-based; conditions: Homo sapiens
Estrogen receptor beta = Estrogen receptor beta (Homo sapiens, UniProt Q92731);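 also: recombinant ER-beta bound to coactivator SRC1 peptide in presence of estradiol agonist; inhibitors block coactivator peptide binding and lower the FRET signal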
HEK293 [12] = experiment: membrane integrity loss in HEK cells – cell-based, fluorescence, cytotoxicity control for IDE activator project, dose response (AID 588440); type: functional; conditions: Homo sapiens;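 also: cytotoxicity by LDH release measuring loss of membrane integrity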
Insulin-degrading enzyme [13] = target: T5, Insulin-degrading enzyme; experiment: cellular IDE activation of Abeta substrate cleavage – fluorescence polarization, HEK cells, dose response (AID 588439); type: functional, cell-based
[14] = cAMP pathway inhibition in counterscreen cell line – TR-FRET cAMP detection, counter-screen for MC4R biased antagonist project, dose response (AID 602305); type: functional, cell-based;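 also: U2OS cells stimulated with forskolin near its EC80 as the cAMP inducer; potency is for inhibition of forskolin-stimulated cAMP signaling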
Melanocortin receptor 4 = Melanocortin receptor 4 (Homo sapiens, UniProt P32245); experiment: inhibitors of MC4R cAMP signaling – cell-based, TR-FRET, biased antagonists, dose response (AID 602298); type: functional;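 also: antagonist potency against agonist-stimulated cAMP production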
Chain of Melanocortin receptor 4 (P32245 whole entry): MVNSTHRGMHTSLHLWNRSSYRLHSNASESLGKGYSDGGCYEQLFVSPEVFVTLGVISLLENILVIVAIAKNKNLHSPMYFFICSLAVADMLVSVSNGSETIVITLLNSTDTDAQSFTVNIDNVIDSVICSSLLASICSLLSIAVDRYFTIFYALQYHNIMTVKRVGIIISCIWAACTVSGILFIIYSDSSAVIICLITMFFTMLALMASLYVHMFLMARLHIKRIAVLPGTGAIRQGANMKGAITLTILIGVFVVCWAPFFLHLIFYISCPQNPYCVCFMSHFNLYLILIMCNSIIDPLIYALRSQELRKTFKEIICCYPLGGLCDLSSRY

Chain of Genome polyprotein (P29990 2492-3391 limits assumed): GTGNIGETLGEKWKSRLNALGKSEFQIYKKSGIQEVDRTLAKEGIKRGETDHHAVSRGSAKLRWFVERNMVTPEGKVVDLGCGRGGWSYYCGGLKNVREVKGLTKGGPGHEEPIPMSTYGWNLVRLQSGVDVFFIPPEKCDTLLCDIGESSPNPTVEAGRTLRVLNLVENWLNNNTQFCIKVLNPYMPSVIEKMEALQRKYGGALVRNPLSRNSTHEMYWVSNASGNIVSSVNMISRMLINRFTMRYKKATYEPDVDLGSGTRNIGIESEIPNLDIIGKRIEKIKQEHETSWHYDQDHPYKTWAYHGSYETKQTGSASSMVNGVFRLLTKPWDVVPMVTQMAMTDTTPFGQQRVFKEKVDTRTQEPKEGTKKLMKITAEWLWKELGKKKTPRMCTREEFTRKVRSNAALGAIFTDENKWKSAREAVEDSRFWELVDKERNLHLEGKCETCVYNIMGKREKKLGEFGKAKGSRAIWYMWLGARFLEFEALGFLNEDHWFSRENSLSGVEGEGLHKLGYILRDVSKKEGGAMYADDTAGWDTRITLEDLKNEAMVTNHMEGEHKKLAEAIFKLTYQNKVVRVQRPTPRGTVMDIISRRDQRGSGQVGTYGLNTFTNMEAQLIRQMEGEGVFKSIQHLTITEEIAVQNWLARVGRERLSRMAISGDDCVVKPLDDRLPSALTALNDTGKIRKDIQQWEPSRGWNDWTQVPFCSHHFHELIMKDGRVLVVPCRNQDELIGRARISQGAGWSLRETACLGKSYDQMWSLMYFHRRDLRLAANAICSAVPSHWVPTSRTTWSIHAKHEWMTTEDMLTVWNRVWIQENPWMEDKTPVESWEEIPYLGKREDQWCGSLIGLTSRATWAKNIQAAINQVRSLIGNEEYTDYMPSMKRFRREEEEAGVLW
Chain of Estrogen receptor beta (Q92731 whole entry): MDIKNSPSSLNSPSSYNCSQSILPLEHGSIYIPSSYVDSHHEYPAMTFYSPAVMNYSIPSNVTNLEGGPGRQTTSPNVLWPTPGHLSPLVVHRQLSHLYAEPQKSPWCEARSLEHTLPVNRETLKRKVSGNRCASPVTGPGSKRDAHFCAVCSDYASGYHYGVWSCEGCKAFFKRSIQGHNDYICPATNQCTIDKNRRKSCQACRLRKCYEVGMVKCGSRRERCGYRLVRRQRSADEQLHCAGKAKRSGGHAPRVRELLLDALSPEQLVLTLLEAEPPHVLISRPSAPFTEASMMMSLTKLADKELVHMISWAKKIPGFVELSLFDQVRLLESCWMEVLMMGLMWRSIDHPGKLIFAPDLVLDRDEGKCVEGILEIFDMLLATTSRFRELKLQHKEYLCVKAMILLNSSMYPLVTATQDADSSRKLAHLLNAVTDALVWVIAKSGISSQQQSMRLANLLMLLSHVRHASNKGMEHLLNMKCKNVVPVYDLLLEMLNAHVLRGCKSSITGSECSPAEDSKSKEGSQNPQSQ

## Cc1cc(NC(=O)CCC(=O)N(Cc2cccs2)C(C(=O)NC2CCCC2)c2ccccc2)no1 (centres undefined)
[1]
  IC50: 0.315 µM (active)
CHO-K1
  IC50: > 66.2 µM (inactive)
[2]
  IC50: 12.7 µM (inactive)
Orexin receptor type 2 [3]
  IC50: > 50 µM (inactive)
[4]
  IC50: > 49.8 µM (inactive)
Orexin receptor type 2 [5]
  IC50: 42.4 µM (inactive)

## O=[N+]([O-])c1cc([N+](=O)[O-])c2c(Nc3ccccc3)n(-c3ccccc3)[n+]([O-])c2c1
Protein RecA
  EC50: 1.97 µM (active)
Genome polyprotein
  IC50: 30.9 µM (active)
[6]
  EC50: 0.313 µM (active)
[7]
  CC50: 29.7 µM (active)
[8]
  AC50: 5.84 µM (active)
[9]
  EC50: > 60 µM (not active)
Vero
  CC50: 38.9 µM (active)

## C=CCNc1nc(N(c2ccccc2)c2ccccc2)nc(-n2ccnc2)n1
[1]
  IC50: 6.47 µM (active)
CHO-K1
  IC50: > 66.2 µM (inactive)
[2]
  IC50: > 49.8 µM (inactive)
Orexin receptor type 2 [3]
  IC50: > 50 µM (inactive)
[4]
  IC50: > 49.8 µM (inactive)
Orexin receptor type 2 [5]
  IC50: > 88.8 µM (inactive)

## CC(=O)Nc1cc2c(cc1C(=O)c1ccccc1)OCCO2
Insulin-degrading enzyme [10]
  EC50: > 54.7 µM (inactive)
HEK293 [11]
  EC50: > 54.7 µM (inactive)
Estrogen receptor beta
  IC50: > 50 µM (not active)
HEK293 [12]
  IC50: > 89.2 µM (inactive)
Insulin-degrading enzyme [13]
  EC50: > 54.7 µM (inactive)

## Cc1ccc(S(=O)(=O)N(C)CC(=O)OCC(=O)NC(=O)NC(C)C)cc1
[14]
  IC50: > 64.6 µM (inactive)
Melanocortin receptor 4
  IC50: > 64.6 µM (inactive)

## COc1ccc(CNc2nc3ccccc3n2CCN2CCOCC2)cc1
Insulin-degrading enzyme [10]
  EC50: > 54.7 µM (inactive)
HEK293 [11]
  EC50: > 55.9 µM (inactive)
HEK293 [12]
  IC50: > 89.1 µM (inactive)
Insulin-degrading enzyme [13]
  EC50: > 54.7 µM (inactive)

## O=C(c1cc([N+](=O)[O-])ccc1N1CCOCC1)N1CCN(c2ccc([N+](=O)[O-])cc2)CC1
Insulin-degrading enzyme [10]
  EC50: 3.64 µM (active)
HEK293 [11]
  EC50: 1.09 µM (active)
HEK293 [12]
  IC50: > 89.2 µM (inactive)
Insulin-degrading enzyme [13]
  EC50: 3.16 µM (active)
